Consider 1 compound from patent US6245336A, “Prevention and treatment of acetaminophen toxicity with grape seed proanthocyanidin extract” (Dry Creek Nutrition, Inc., priority 1999, dated 2001).

Molecules are shown by their SMILES.

Series [1] relates to serum alanine aminotransferase activity. The experiment in a line: serum alanine aminotransferase (ALT) activity in acetaminophen-treated mice. Type of series: in vivo. Particulars: no pre-exposure to GSPE, 24 h. On the procedure: (§1) Trials of the efficacy of GSPE in preventing acetaminophen toxicity were performed using mice as test subjects. The GSPE used in the subject trials is a standardized water-ethanol extract from red grape seeds, identified as IH636 by InterHealth Nutraceuticals, Inc., of Concord, Calif. The dosage used in the subject trials was 100 mg of GSPE per kg of body weight, daily for three or seven days. This dosage is equivalent to about […] of body weight, based on the following formula from the CRC Handbook of Toxicology, Delanko M. J. and Hollinger M. A. eds., CRC Press 1995, p. 654:
(§2) GSPE was dissolved in phosphate-buffered saline solution and the solution was administered orally. Acetaminophen then was administered intraperitoneally, as a single toxic dose, in dosage of either 400 or 500 mg/kg. These dosage levels are equivalent to approximately 10 grams for normal healthy adults and 4 to 6 grams for alcoholics, levels that have been found toxic for humans. Twenty-four hours after administration of the acetaminophen, blood samples were removed from the subjects and analyzed for serum alanine aminotransferase activity, a well-known biomarker of liver toxicity. Liver samples also were taken and analyzed them for apoptotic and necrotic cell death DNA damage and gene expression.

For the next series, the system named is liver tissue. The experiment in a line: DNA fragmentation assay of liver tissue from acetaminophen-treated mice. Type of series: in vivo. Particulars: without pre-exposure to GSPE. As for the experimental part: as §1, §2
The subject of a further series is humans. Particulars: normal healthy adults; cited from earlier work.
The test system of a further series is mice. The experiment in a line: number of deaths of mice treated with acetaminophen and GSPE. Type of series: in vivo. To be noted: without pre-exposure to GSPE. On the procedure:
as §1, §2

The test system of a further series is liver sections. The experiment in a line: liver sections at 400× magnification (histology). Type of series: in vivo, mice. Particulars: acetaminophen 500 mg/kg without GSPE pre-treatment; FIG. 11. As for the experimental part: as §1
FIGS. 9 through 12 show comparison liver sections from test subjects at 400× magnification. FIGS. 9 and 10 show normal liver sections from test subjects not given acetaminophen.

Turning to `CC(=O)Nc1ccc(O)cc1` [acetaminophen, N-acetyl-p-amino phenol], the “serum ALT” value was “about 22,000 U/L” in series [1] (acetaminophen 400 mg/kg i.p.) and “about 30,000 U/L” in series [1] (acetaminophen 500 mg/kg i.p.). Further, the DNA fragmentation result was “about 3.5 times that of the control group” in the series on liver tissue (acetaminophen 400 mg/kg) and “about 4.8 times that of the control group” in the series with liver tissue (acetaminophen 500 mg/kg). Moreover, in the series on humans, the “dosage level found toxic for humans” value was “approximately 10 grams”. Further, the number of deaths in the series on mice (acetaminophen 400 mg/kg) is reported as 2; in the series with mice (acetaminophen 500 mg/kg), 4. The “liver section appearance indicating toxicity” value with liver sections was “whitening and browning of cells, indicating toxicity”.
